Patent publication US5326751A, “Enkephalin analogs” (Arizona Board of Regents on behalf of the University of …, priority 1992, dated 1994)
Bridge positions count the residues as written; N and C are the ends. Square brackets hold non-standard residues; d marks the D form. Peptide text beside a SMILES is read from it. Phe(4-NO2) = N[C@@H](Cc1ccc([N+](=O)[O-])cc1)C(=O)O; Phe(4-Br) = N[C@@H](Cc1ccc(Br)cc1)C(=O)O; Phe(4-Cl) = N[C@@H](Cc1ccc(Cl)cc1)C(=O)O; Phe(4-F) = N[C@@H](Cc1ccc(F)cc1)C(=O)O; Phe(4-I) = N[C@@H](Cc1ccc(I)cc1)C(=O)O; dPen = CC(C)(S)[C@@H](N)C(=O)O; dAbu = CC[C@@H](N)C(=O)O; Ac5c = NC1(C(=O)O)CCCC1; Abu = CC[C@H](N)C(=O)O

Tests used:
[1] = target: guinea pig ileum (GPI), primarily mu-type opiate receptors (Cavia porcellus, UniProt P97266); test: guinea pig ileum (GPI) assay: inhibition of electrically induced muscle contractions; format: cell-based; set-up: inh in GPI: dose or concentration left out as unconfirmed; conditions: for IC50: guinea pig ileum, electrically stimulated contractions, read-out: IC50 (nM) ± S.E.E. GPI
Chain of guinea pig ileum (GPI), primarily mu-type opiate receptors (P97266 whole entry, looked up): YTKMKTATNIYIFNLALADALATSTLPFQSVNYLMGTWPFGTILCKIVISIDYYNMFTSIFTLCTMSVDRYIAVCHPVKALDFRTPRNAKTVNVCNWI
Protocol: The guinea pig ileum longitudinal muscle-myenteric plexus preparation was prepared following the method of Kosterlitz, et al. Brit. J. Pharmacol., 39, 398-413 (1970). Agonists were added to the tissue bath and remained in contact with the tissue for a maximum of three minutes.

[2] = target: T1, mouse vas deferens (MVD), primarily delta-type opiate receptors (Mus musculus, UniProt P32300); test: mouse vas deferens (MVD) assay: inhibition of electrically induced muscle contractions; format: cell-based; conditions: for IC50: mouse vas deferens, electrically stimulated contractions, read-out: IC50 (nM) ± S.E.E. MVD
T1 construct: from tissue; host or cells: mouse vas deferens
T1 sequence (P32300 whole entry): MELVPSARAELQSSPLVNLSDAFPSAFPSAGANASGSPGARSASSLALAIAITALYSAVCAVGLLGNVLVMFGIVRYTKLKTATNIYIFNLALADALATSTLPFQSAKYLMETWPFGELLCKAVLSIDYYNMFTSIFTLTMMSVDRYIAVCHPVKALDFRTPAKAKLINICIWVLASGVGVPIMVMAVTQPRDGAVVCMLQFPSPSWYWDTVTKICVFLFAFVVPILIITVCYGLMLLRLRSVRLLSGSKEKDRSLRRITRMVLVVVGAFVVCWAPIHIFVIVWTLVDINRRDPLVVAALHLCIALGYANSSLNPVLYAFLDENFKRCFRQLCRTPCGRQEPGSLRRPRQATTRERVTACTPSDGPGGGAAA
Protocol: The MVD preparation contains primarily delta-type opiate receptors, with some kappa and mu receptors.
The mouse vas deferens was prepared following the method of Hughes, et al. cites Brit. J. Pharmacol., 53, 371-381 (1975). One pair of vasa deferentia was used in each experiment.

[3] = target: T2, mu-type opioid receptors (Rattus norvegicus, UniProt P33535); test: displacement of [3H]CTOP in rat brain homogenate; format: binding; conditions: 25° C., read-out: IC50 (nM) ± S.E.E. [3H] CTOP
T2 construct: Whole brains with cerebellum removed were homogenized in 100 volumes of Tris-HCl buffer; from tissue; host or cells: rat brain (without cerebellum), washed homogenate
T2 sequence (P33535 whole entry): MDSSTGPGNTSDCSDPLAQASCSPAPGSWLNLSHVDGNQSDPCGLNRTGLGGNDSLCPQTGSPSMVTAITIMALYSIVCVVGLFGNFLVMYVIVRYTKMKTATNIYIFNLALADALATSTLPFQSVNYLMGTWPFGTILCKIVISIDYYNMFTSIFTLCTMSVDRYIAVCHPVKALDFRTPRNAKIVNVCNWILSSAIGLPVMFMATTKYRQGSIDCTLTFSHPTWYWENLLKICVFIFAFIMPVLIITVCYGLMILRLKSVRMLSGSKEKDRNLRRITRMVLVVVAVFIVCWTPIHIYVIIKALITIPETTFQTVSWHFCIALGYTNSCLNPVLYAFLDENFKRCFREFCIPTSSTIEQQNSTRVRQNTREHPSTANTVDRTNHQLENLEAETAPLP
Protocol: (§1) The binding potencies of each compound for mu and delta receptors in rat brain extracts was determined by competition assays against radiolabelled compounds known to bind opioid receptors. […] The ability of a tested compound to displace tritiated ligands from their respective receptor molecules is a measure of the compound's binding potency for the receptor of the displaced ligand.
(§2) Brains from male Sprague-Dawley rats were rapidly removed following sacrifice. Whole brains with cerebellum removed were homogenized in 100 volumes of Tris-HCl buffer (pH 7.4 at 25°). Tissue homogenates were washed twice in the same buffer by centrifugation at 48,000 g for 10 min. Pellets were resuspended in the same buffer.
(§3) Filter-bound radioactivity was quantitated by liquid scintillation spectrophotometry with an efficiency of 46%. Radio-ligand displaced by 1 μM natrexone hydrochloride was defined as specific tissue binding.

[4] = target: T3, delta-type opioid receptors (Rattus norvegicus, UniProt P33533); test: displacement of [3H][p-Cl-Phe4]DPDPE in rat brain homogenate; format: binding; conditions: for IC50: rat brain homogenate, 1 nM radioligand, 25° C., 40 min, read-out: IC50 (nM) ± S.E.E. [3H] p-Cl-DPDPE
T3 construct: Whole brains with cerebellum removed were homogenized in 100 volumes of Tris-HCl buffer; from tissue; host or cells: rat brain (without cerebellum), washed homogenate
T3 sequence (P33533 whole entry): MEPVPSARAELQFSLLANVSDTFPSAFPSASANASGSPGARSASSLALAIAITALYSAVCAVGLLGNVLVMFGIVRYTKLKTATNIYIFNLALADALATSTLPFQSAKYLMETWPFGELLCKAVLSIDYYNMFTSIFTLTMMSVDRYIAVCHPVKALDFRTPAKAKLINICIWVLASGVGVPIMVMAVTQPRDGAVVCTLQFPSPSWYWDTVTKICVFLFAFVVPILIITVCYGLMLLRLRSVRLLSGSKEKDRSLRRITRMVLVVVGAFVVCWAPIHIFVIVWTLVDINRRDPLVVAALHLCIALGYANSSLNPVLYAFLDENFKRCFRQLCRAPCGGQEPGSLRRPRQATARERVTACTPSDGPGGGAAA
Protocol: as §1, §2
Total incubation volume was 2 ml. After 40 min., the mixture was rapidly filtered through Whatman GF/B glass fiber filters and washed 3 times with 5 ml of ice-cold buffer.
as §3

| SMILES | IC50 [1] [nM] | IC50 [2] [nM] | IC50 [3] [nM] | IC50 [4] [nM] | inh in GPI [1] [% inh] | RATIO (μ/δ), Table 1 ([2]; GPI IC50 / MVD IC50) | RATIO (μ/δ), Table 2 ([4]; [3H]CTOP IC50 / [3H]p-Cl-DPDPE IC50, rat brain) |
| --- | --- | --- | --- | --- | --- | --- | --- |
| CC1(C)SSC(C)(C)[C@@H](NC(=O)[C@@H](N)Cc2ccc(O)cc2)C(=O)NC2(CCCC2)C(=O)N[C@@H](Cc2ccccc2)C(=O)N[C@H]1C(=O)O [[AC5 C^3]DPDPE] (H-Y[dPen][Ac5c]F[dPen]-OH; disulfide 2-5) | 857 ± 31.7 | 370 ± 162 | 1760 ± 45 | 312 ± 39 |  |  |  |
| CC[C@H]1NC(=O)[C@H](NC(=O)[C@@H](N)Cc2ccc(O)cc2)C(C)(C)SSC(C)(C)[C@H](C(=O)O)NC(=O)[C@H](Cc2ccccc2)NC1=O [[D--Abu^3]DPDPE] (H-Y[dPen][dAbu]F[dPen]-OH; disulfide 2-5) | 29900 ± 2670 | 1950 ± 204 | > 50000 | 3380 ± 1070 |  |  |  |
| C[C@H]1NC(=O)[C@H](NC(=O)[C@@H](N)Cc2ccc(O)cc2)C(C)(C)SSC(C)(C)[C@H](C(=O)O)NC(=O)[C@H](Cc2ccccc2)NC1=O [[D--Ala^3]DPDPE] (H-Y[dPen][dA]F[dPen]-OH; disulfide 2-5) | 33300 ± 817 | 572 ± 131 | > 35000 | 535 ± 58 |  |  |  |
| CC1(C)SSC(C)(C)[C@@H](NC(=O)[C@@H](N)Cc2ccc(O)cc2)C(=O)N[C@H](CO)C(=O)N[C@@H](Cc2ccccc2)C(=O)N[C@H]1C(=O)O [[D--Ser^3]DPDPE] (H-Y[dPen][dS]F[dPen]-OH; disulfide 2-5) |  | 1280 ± 245 | > 50000 | 764 ± 106 | 3 |  |  |
| CC[C@@H]1NC(=O)[C@H](NC(=O)[C@@H](N)Cc2ccc(O)cc2)C(C)(C)SSC(C)(C)[C@H](C(=O)O)NC(=O)[C@H](Cc2ccccc2)NC1=O [[L--Abu^3]DPDPE] (H-Y[dPen][Abu]F[dPen]-OH; disulfide 2-5) | 4870 ± 345 | 84.9 ± 12.5 | 12000 ± 938 | 66.3 ± 30.4 |  |  |  |
| C[C@@H]1NC(=O)[C@H](NC(=O)[C@@H](N)Cc2ccc(O)cc2)C(C)(C)SSC(C)(C)[C@H](C(=O)O)NC(=O)[C@H](Cc2ccccc2)NC1=O [[L--Ala^3 ]DPDPE (DPADPE), L-Tyrosyl-D-penicillaminyl-L--alanyl-L-phenylalanyl-D-penicillaminyl cyclic (2-5) disulfide] (H-Y[dPen]AF[dPen]-OH; disulfide 2-5) | 121000 ± 81400 | 11.8 ± 1.62 | 11000 ± 13 | 18.4 ± 0.43 |  | 10,315 | 598 |
| CC1(C)SSC(C)(C)[C@@H](NC(=O)[C@@H](N)Cc2ccc(O)cc2)C(=O)N[C@@H](CO)C(=O)N[C@@H](Cc2ccccc2)C(=O)N[C@H]1C(=O)O [[L--Ser^3]DPDPE] (H-Y[dPen]SF[dPen]-OH; disulfide 2-5) | 39400 ± 7160 | 252 ± 32.5 | > 22500 | 42 ± 3 |  |  |  |
| C[C@@H]1NC(=O)[C@H](NC(=O)[C@@H](N)Cc2ccc(O)cc2)C(C)(C)SSC(C)(C)[C@H](C(=O)O)NC(=O)[C@H](Cc2ccc(Br)cc2)NC1=O [[p-Br--Phe^4 ]DPADPE] (H-Y[dPen]A[Phe(4-Br)][dPen]-OH; disulfide 2-5) | 40800 ± 2950 | 2.95 ± 0.686 | 2710 ± 453 | 5.3 ± 0.86 |  |  |  |
| C[C@@H]1NC(=O)[C@H](NC(=O)[C@@H](N)Cc2ccc(O)cc2)C(C)(C)SSC(C)(C)[C@H](C(=O)O)NC(=O)[C@H](Cc2ccc(Cl)cc2)NC1=O [[p-Cl--Phe^4 ]DPADPE] (H-Y[dPen]A[Phe(4-Cl)][dPen]-OH; disulfide 2-5) | 25500 ± 10300 | 1.94 ± 0.295 | 1120 ± 260 | 3.7 ± 0.9 |  |  |  |
| C[C@@H]1NC(=O)[C@H](NC(=O)[C@@H](N)Cc2ccc(O)cc2)C(C)(C)SSC(C)(C)[C@H](C(=O)O)NC(=O)[C@H](Cc2ccc(F)cc2)NC1=O [[p-F--Phe^4 ]DPADPE] (H-Y[dPen]A[Phe(4-F)][dPen]-OH; disulfide 2-5) | 4600 ± 1010 | 3.61 ± 0.367 | 1460 ± 253 | 0.55 ± 0.14 |  |  |  |
| C[C@@H]1NC(=O)[C@H](NC(=O)[C@@H](N)Cc2ccc(O)cc2)C(C)(C)SSC(C)(C)[C@H](C(=O)O)NC(=O)[C@H](Cc2ccc(I)cc2)NC1=O [[p-I--Phe^4 ]DPADPE] (H-Y[dPen]A[Phe(4-I)][dPen]-OH; disulfide 2-5) | 30800 ± 1550 | 11 ± 1.23 | 3670 ± 396 | 12.5 ± 0.5 |  |  |  |
| C[C@@H]1NC(=O)[C@H](NC(=O)[C@@H](N)Cc2ccc(O)cc2)C(C)(C)SSC(C)(C)[C@H](C(=O)O)NC(=O)[C@H](Cc2ccc([N+](=O)[O-])cc2)NC1=O [[p-NO2 --Phe^4 ]DPADPE] (H-Y[dPen]A[Phe(4-NO2)][dPen]-OH; disulfide 2-5) | 13500 ± 1210 | 3.74 ± 0.356 | 712 ± 3 | 3.5 ± 0.25 |  |  |  |
